The values that follow are results of earlier work, collected in patent US20260226377A1, “BIODEGRADABLE MICROCAPSULES CONTAINING LOW LOG P FRA-GRANCE” (priority 2023, published 2026).

The conditions of this series: octanol/water; source of values not stated (b29 refers to reported values, Pomona92 database).

As to `O=Cc1ccccc1` [benzaldehyde], the logP value is 1.70.
